According to patent US12239654B2, “Compounds and methods for treating neurological and cardiovascular conditions” (Astrocyte Pharmaceuticals, Inc., priority 2016, dated 2025):
Entries after “also recorded” stand apart in the source; their conditions may differ.

Legend:
mice subjected to stroke = test: Photothrombosis-induced stroke in mice, TTC-stained brain infarction size; assay type: in vivo, C57Bl/6 mice; details: for size of brain infarctions in mice pretreated with A3 receptor antagonist MRS1523: MRS1523 2 mg/kg ip at 0 and 2 hour, treatment within 30 minutes of clot formation; for size of brain infarctions in mice pretreated with A3 receptor antagonist MRS1523 / size of the brain infarction (TTC staining): 24 hours; for size of the brain infarction (TTC staining): photothrombotic stroke mice, vs vehicle; for efficacy in the mouse photothrombotic stroke model: summary statement
Description: Photothrombosis-induced Stroke: Photothrombosis was performed as described in Zheng et al 2010 (PloS One 5 (12): e14401). In brief, Rose Bengal is a fluorescent dye that when injected into the vasculature and excited, generates singlet oxygen that damages the endothelial wall and induces a local thrombosis (clot). Using this technique, mice were given a 0.1 mL tail-vein injection of sterilized Rose Bengal (RB, Sigma, U.S.A.) in artificial cerebral spinal fluid (aCSF). The RB concentration was 20 mg/mL. A cortical region was centered in the imaging field and illuminated with a green laser (543 nm, 5 mW) using a 0.8-NA 40× water-immersion objective (Nikon, Tokyo). The clot formation was monitored in real time until the targeted vessel or downstream capillaries were firmly occluded. Stable clots were subsequently identified by a non-fluorescent vessel segmentation ending with highly fluorescent regions. […] Treatments, MRS4322 (0.16 mg/kg; 0.5 μmol/kg) or MRS2365 (0.24 mg/kg; 0.5 μmol/kg) were introduced via intraperitoneal injections (i.p.). For experiments with A3 receptor antagonist MRS1523, mice were administered intraperitoneal injections (2 mg/kg) at the 0 and 2 hour timepoints to ensure receptor antagonism throughout the course of the study.
Animals and Photothrombosis-induced Stroke: Stroke was performed as described in Zheng et al 2010 (PloS One 5 (12): e14401). Female C57Bl/6 mice (4-6 months) were used in this study. From the methods of this manuscript: Mice were anesthetized at 3% isoflurane with 100% oxygen and subsequently maintained at 1% isoflurane through a nosecone. Depth of anesthesia was monitored and regulated according to vital signs, pinch withdrawal and eye blinks. Body temperature was maintained at 37° C. by a feedback-controlled heating pad (Gaymar T/Pump). Vital signs including oxygen saturation, respiratory rate, and heart rate were continuously monitored by using the MouseOx system (STARR Life Sciences). The hair on each mouse's head was trimmed and a small incision was made in the scalp to expose the skull. A custom-made stainless steel plate was glued to the skull with VetBond Tissue Adhesive (3M, St Paul, MN). A cranial thinned-skull imaging window was created over the right primary somatosensory cortex (˜1.5 mm posterior to Bregma and 2 mm lateral from midline) depending on the experiment. In brief, a large region of the skull was first thinned with the electric drill and then further thinned with a surgical blade. The final thickness of the thinned skull was approximately 50 μm. After the cranial imaging window was created, mice were transferred to microscope stage and used for photothrombosis or imaging experiments. For the repeat imaging experiments, the plate was carefully detached from the skull and the scalp was sutured (Ethicon 6-0 sild suture). After each experiment, the mice were either returned to cages until the next timepoint or sacrificed. All procedures were approved by the Institutional Animal Care and Use Committee (IACUC) at University of Texas Health Science Center at San Antonio. Thirty minutes following stroke or sham (uninjured), mice were treated with either vehicle (saline) or drugs (MRS4322, MRS2365, MRS5698 or Cl-IBMECA).
Post photothrombotic infarction evaluation. The size of cerebral infarcts was evaluated using 2,3,5-Triphenyltetrazolium chloride (TTC) staining as described in Zheng et al 2010 (PloS One 5 (12): e14401). In brief, RB-induced lesions in brain slices were stained with TTC. TTC is a colorless dye that stains healthy brain tissue red when reduced by the mitochondrial enzyme succinyl dehydrogenase (Bederson J B et al., 1986). The absence of staining in necrotic tissue is then used to define the area of a brain infarction. Mice were sacrificed by cervical dislocation, their brains removed and then placed in ice cold HBSS for 3 minutes. The brain was subsequently transferred to a brain mold (KOPF), sliced into 1 mm sections and immersed in 2% TTC (5 min) at 37° C. […]

[1] = test system: mice subjected to traumatic brain injury (TBI); test: Traumatic brain injury (TBI) in mice, Western blot analysis for GFAP; assay type: in vivo, C57BL/6 mice; details: for GFAP expression in brain (GFAP/actin, Western blot): 7 days post-injury, vs TBI untreated; for efficacy in the mouse TBI model: summary statement, FIG. 12
Description: Animals and traumatic brain injury (TBI): TBI was performed with a controlled closed skull injury model as described in […] al. 2012 (J. Neurotrauma 30, 55-66). Following the method described therein, a pneumatic impact device was used to generate a moderate TBI leaving the skull and dura matter intact. To achieve this, C57BL/6 mice were anesthetized with isoflurane (3% induction, 1% maintenance) in 100% oxygen. A body temperature of 37° C. was maintained using a temperature-controlled heated surgical table. A small midline incision was made on the scalp using aseptic surgical techniques. A 5 mm stainless steel disc was positioned on the skull and fixed using superglue on the right parietal bone between bregma and lamda over the somatosensory cortex. The mouse was then positioned on a stage directly under the pneumatic impact tip. […] Scalp incisions were closed using 4-0 nylon braided suture and antibiotic ointment applied to the incision. Mice were placed in a Thermo-Intensive Care Unit (Braintree Scientific model FV-1; 37° C.; 27% 02) and monitored until fully awake and moving freely. […] Western Blot Analysis for GFAP: At selected survival times, mice were anesthetized under isoflurane and sacrificed. The brain was removed and placed on ice for dissection into impacted and non-impacted brain hemispheres. […] The homogenate was transferred to a 2 mL tube and centrifuged at 1000 g for 10 minutes at 4° C. and the supernatant was collected and analyzed. Protein concentration was determined by the BCA assay using a 1:50 dilution. 100 μg of protein was removed as an aliquot for each sample and Laemmli buffer containing β-mercaptoethanol added and the sample placed in a heat block for 3 minutes at 95° C. Samples were loaded on a 12% gel and ran at 80 V for 20 minutes followed by 40 minutes at 130 V. Samples were transferred to nitrocellulose membrane at 100 V for 1 hour. The membrane was blocked with 5% milk in TBS-T for 30 minutes. GFAP (1:1000-Imgenex IMG-5083-A) was added and placed at 4° C. overnight. The membrane was washed with TBS-T three times for 10 minutes. Secondary antibody for GFAP (Donkey anti-rabbit HRP conjugated (ImmunoJackson Laboratories; 711-035-152; 1:20000) was applied at room temperature for 1 hour. The membranes were washed with TB S-T for 15 minutes (3 times) and developed using the Western Lightning Plus-ECL kit (PerkinElmer, Inc.) following manufacturer's directions.

[2] = 0.5 μmol/kg ip within 30 minutes of clot formation
[3] = TBI mice, treated 30 min post-TBI, approximately 0.5 μmol/kg

## CSc1nc(N)c2ncn([C@H]3[C@H](O)[C@H](O)[C@]4(CO)C[C@H]34)c2n1 [MRS4322]
Mice subjected to stroke
  size of brain infarctions in mice pretreated with A3 receptor antagonist MRS1523: not reduced; also recorded: reversed by MRS1523
  efficacy in the mouse photothrombotic stroke model: significant efficacy
Mice subjected to stroke; [2]
  size of the brain infarction (TTC staining): significantly reduced; also recorded: reduced the effects of stroke infarction
Mice subjected to stroke; 100 ul of 100 uM ip within 30 minutes of clot formation
  size of the brain infarction (TTC staining): significantly reduced
[1]; [3]
  GFAP expression in brain (GFAP/actin, Western blot): significantly lower; also recorded: decreased
[1]; TBI mice, treated 30 min post-TBI, approximately 0.5 μmol/kg, day 7, vs TBI untreated
  GFAP levels in plasma relative to actin (Western blot): significantly reduced
[1]
  efficacy in the mouse TBI model: significant efficacy

## CNC(=O)[C@H]1O[C@@H](n2cnc3c(NCc4cccc(I)c4)nc(Cl)nc32)[C@H](O)[C@@H]1O [Cl-IB-MECA, 2-Chloro-N^6-(3-iodobenzyl)-adenosine-5′-N-methyluronamide, reference compound]
Mice subjected to stroke
  efficacy in the mouse photothrombotic stroke model: inactive
[1]
  efficacy in the mouse TBI model: weakly active

## CSc1nc(N)c2ncn([C@H]3[C@H](O)[C@H](O)[C@]4(COP(=O)(O)OP(=O)(O)O)C[C@H]34)c2n1 [MRS2365]
Mice subjected to stroke
  size of brain infarctions in mice pretreated with A3 receptor antagonist MRS1523: not reduced
Mice subjected to stroke; [2]
  size of the brain infarction (TTC staining): significantly reduced
[1]; [3]
  GFAP expression in brain (GFAP/actin, Western blot): significantly lower; also recorded: decreased
